In patent US20100124537A1 (priority 2007, published 2010):
“Also recorded” adds a separate entry of the source. Read-outs that look alike come from different tables or passages of the source.

Experiments:
[1] = system: H. pylori, strain 119/95; experiment: Mice infectious model with H. pylori, three intragastric doses of alpha-ketoglutaric acid salts, culture on GAB-CAMP agar (Example 2); type: in vivo, BALB/cA mice; details: for H. pylori colonies cultured from gastric mucosa: infected mice treated 3 consecutive days, 8 days after infection (Group III B); for effect on colonisation of gastric mucosa by H. pylori: three intragastric administrations on 3 consecutive days, started 8 days after last infective dose
Description: Eight days after the last challenge, sixteen mice were inoculated intragastrically through the tube for three successive days with 0.2 ml of 30 mM solution of salts of alpha-ketoglutaric acid (group III B). The remaining eight mice were sham-treated with 0.2 ml of 0.01 M PBS (group III) according to the procedure with group III.
Eight days after above treatment sixteen mice were inoculated with the tube for three consecutive days with salts of […] (0.2 ml, concentration 30 mM) (group IV B). The remaining eight mice were treated with 0.2 ml 0.01 M PBS (group IV).
Stomach and blood were samples were collected for the further studies.
(§1) DNA was also isolated to perform PCR with primers (5′-[…]-3′ and 5′-[…]-3′) recognizing 16S rDNA fragment in DNA of bacteria from Helicobacter genus. Afterwards PCR products in size 470 by were separated according to denaturating gradient gel electrophoresis technique (DGGE) and sequenced. […] Electrophoresis run at a temp of 60° C. in 125 V during 16 h.

[2] = system: bacteria from Helicobacter genus (16S rDNA); experiment: 16S rDNA PCR, DGGE and sequencing of stomach mucosa homogenates (Example 2); type: in vivo, BALB/cA mice; details: for H. pylori DNA / sequences specific for H. pylori in PCR products: infected mice treated with alpha-ketoglutarate (Group III B), ethidium bromide staining
Description: as §1

[3] = Morphology of stomach and small intestine mucosa in mice given alpha-ketoglutarate; type: in vivo; details: mice infected with H. pylori and following inoculation with alpha-ketoglutarate
[4] = system: lactic acid bacteria; experiment: Lactic acid bacteria isolated from scraped stomach mucosa (antral part); type: in vivo; details: animals tested, including mice infected with H. pylori and then inoculated with alpha-ketoglutarate
[5] = system: H. pylori infection; experiment: Volunteers with confirmed H. pylori infection taking the calcium salt with a milk drink (Example 4); type: in vivo, human; details: after two-week treatment
[6] = system: H. pylori, strain 119/95
Description: Laboratory experimental animals: twenty eight 6 week-old BALB/cA (female) mice weighing 25±2 g (FIG. 1). […] Two weeks after the last challenge, seven mice were inoculated intragastrically for nine successive days by the same method with a solution of calcium or sodium salt of alpha-ketoglutaric acid (0.2 ml, at concentration 30 mM) (group I A). The remaining seven mice were sham-treated with 0.01 M phosphorate buffer—PBS (group I B) as animals from group I A.
Further fourteen mice from group II A and II B were treated with 0.2 ml PBS according to the scheme operating by the infection of the animals with H. pylori. Two weeks after the above treatment seven mice were continuously inoculated with PBS (0.2 ml) for three consecutive days. The remaining seven mice were treated with a solution of salts of alpha-ketoglutaric acid (0.2 ml, concentration 30 mM) (group II A).
On the 30th day of the experiment all mice were sacrificed using CO2. For further analyses blood and stomach samples from mice infected with H. pylori with or without the following inoculation with salts of alpha-ketoglutaric acid were collected. In this experiment the relationship between colonisation level of mouse stomach mucosa (n=28) by H. pylori and the mice treated intragastrically with salts of alpha-ketoglutaric acid were studied in accordance with the time regime as described above.
37° C., under microaerophilic conditions for 7-10 days. From the half of the antrum gastric mucosa was scraped off and mixed with 500 μl PBS sterilized. After homogenate balancing it was noticed that the amount of the scraped mucosa from the half of the antrum was generally between 40 μg a 50 μg. For calculation of number of H. pylori cells, a 100 μl of gastric mucosa homogenate was smeared onto GAB-CAMP agar plates and incubated at temp. 37° C., for 5-10 days, under microaerophilic conditions. Homogenized mucosa samples from each mouse were examined in triplicate. The results are presented as the mean value±SD. The presence of H. pylori was identified by colony morphology and urease-, oxidase- and catalase tests, as well as by morphological examination of cells by Gram-staining.

[7] = system: gastrin; details: infected with H. pylori then alpha-ketoglutarate, versus control group (PBS); p<0.01
[8] = system: cholecystokinin (CCK)
[9] = 2-3 years old rats with low initial blood AKG (below 0.1 ug/ml), feed additive; controls did not survive; cited from earlier work
[10] = PBS + AKG (Group IV B), non-infected mice
[11] = listed as salts of alpha-ketoglutaric acid
[12] = PBS + AKG (Group II A), non-infected mice

SMILES: O=C(O)CCC(=O)C(=O)O [AKG, alpha-ketoglutarate]
- H. pylori cultivated: Number of mice infected/in group ([1]; H. pylori + AKG (Group III B), 0.2 ml 30 mM intragastrically for 3 days starting 8 days after last challenge, day 20): 0/16
- H. pylori cultivated: Number of bacteria (cfu)/mouse ([1]; H. pylori + AKG (Group III B), H. pylori + PBS gave 4.3 × 10^2 ± 5.0 × 10^1): 0 cfu/mouse
- H. pylori cultivated: Number of bacteria (cfu)/mouse [1, 10]: 0 cfu/mouse
- H. pylori cultivated: Number of mice infected/in group [1, 10]: 0/16
- H. pylori colonies cultured from gastric mucosa [1]: no H. pylori colonies were found
- H. pylori colonies cultured from gastric mucosa [1, 11]: not found; also recorded: no H. pylori colony was cultured
- effect on colonisation of gastric mucosa by H. pylori [1]: completely stopped colonisation and fully eradicated H. pylori
- effect on colonisation of gastric mucosa by H. pylori [1, 11]: total inhibitory effect on bacterial colonisation and fully eradication of H. pylori bacteria from gastric mucosa
- 16S rDNA PCR - Helicobacter genus: Number of mice with H. pylori DNA/in group ([2]; H. pylori + AKG (Group III B)): 0/16
- 16S rDNA PCR - Helicobacter genus: Number of mice with H. pylori DNA/in group [2, 10]: 0/16
- H. pylori DNA / sequences specific for H. pylori in PCR products [2]: no H. pylori DNA was found
- H. pylori DNA / sequences specific for H. pylori in PCR products [2, 11]: not found
- morphological changes in thickening of mucosa in stomach and small intestine, villus width and crypt depth [3]: no morphological changes
- changes in the amount of lactic acid bacteria isolated from scraped stomach mucosa (antral part) [4]: no changes
- time for which lack of dyspepsia symptoms was maintained after end of administration [5]: one
- H. pylori cultivated: Number of mice infected/in group ([6]; H. pylori + AKG (Group I A), 0.2 ml 30 mM intragastrically for 9 days starting 2 weeks after last challenge, day 30): 7/7
- H. pylori cultivated: Number of bacteria (cfu)/mouse ([6]; H. pylori + AKG (Group I A), mean ± SD, H. pylori + PBS gave 7.8 × 10^2 ± 5.0 × 10^1): 3.8 × 10^2 ± 5.0 × 10^1 cfu/mouse
- H. pylori cultivated: Number of bacteria (cfu)/mouse [6, 12]: 0 cfu/mouse
- H. pylori cultivated: Number of mice infected/in group [6, 12]: 0/7
- number of colonies (mean±SD) isolated from antral/pyloric part of gastric mucosa ([6]; infected mice treated 9 days (Group I A), infected only 7.8×10^2±5.0×10^1): 3.8×10^2±5.0×10^1
- reduction of degree of gastric mucosa colonisation by H. pylori ([6]; nine intragastric administrations on 9 consecutive days, started 14 days after last infective dose, versus mice infected only): 49%
- reduction in the number of gastrin-producing cells in the pyloric region of the stomach glands [7]: 17%
- differences in number of CCK-producing cells in the small intestine ([8]; H. pylori + alpha-ketoglutarate versus alpha-ketoglutarate only, p=0.25): no significant differences
- decrease in number of CCK producing cells in the small intestine ([8]; animals treated with alpha-ketoglutarate versus non-infected mice given only PBS, tendency, p=0.1): 30%

SMILES: O.O.O=C([O-])CCC(=O)C(=O)[O-].[Na+].[Na+] [Na2AKG*2H2O]
- survival of the experiment [9]: survived the experiment
